These results are taken from patent US8207189B2, “Compound having affinity for amyloid” (Nihon Medi-Physics Co., Ltd., priority 2007, dated 2012).

The nature of data set [1]: transferability into brain and clearance after intravenous injection. It is filed as in vivo, rat. As to the method: Using Compound 1 (Example 10) and Compound 2 (Example 11), a time course change of radioactive accumulation in brain of male Wistar rats (7-week old) was measured.
A diethyl ether solution of Compound 1 (Example 10) prepared in Example 3, a diethyl ether solution of Compound 2 (Example 11) prepared in Example 6 and a diethyl ether solution of [^123I]-IMPY (Comparative Example 5) prepared in Reference Example 1 were each diluted with 10 mg/mL ascorbic acid-containing physiological saline solution to adjust to a radioactive concentration of 8-12 MBq/mL. 0.05 mL each of the prepared sample solutions was injected under thiopental anesthesia into the tail vein of the rats. The rats were sacrificed by bleeding from abdominal artery, and brains were removed and subjected to measurement of mass of brains and further subjected to measurement of radioactivity (hereinafter referred to as A in this Example) with a single channel analyzer (detector type: SP-20 manufactured by OHYO KOKEN KOGYO Co., Ltd.) 2, 5, 30 and 60 minutes after the injection. Further, the radioactivity level of the rest of the whole body was measured in the same manner as above (hereinafter referred to as B in this Example). Using these measurement results, radioactive distribution per unit weight of brain (% ID/g) at the respective time points were calculated in accordance with the following formula (3).
Three animals were used for the experiment at the respective time points.
Using Compound 4 and Compound 6, a time course change of radioactive accumulation in brain of male Wistar rats (7-week old) was measured.
Compound 4 (Example 22), Compound 6 (Example 23) and a solution of [^123I]-IMPY (Comparative Example 8) prepared above in Reference Example 1 were each diluted with a 10 mg/mL ascorbic acid-containing physiological saline solution to prepare solutions (20-31 MBq/mL in radioactive concentration). 0.05 mL each of the prepared sample solutions was injected under thiopental anesthesia into the tail vein of the respective Wistar rat (7-week old). The rats were sacrificed by bleeding from abdominal artery, and brains were removed and subjected to measurement of mass of brains and further subjected to measurement of radioactivity (hereinafter referred to as A in this Example) with a single channel analyzer (detector type: SP-20 manufactured by OHYO KOKEN KOGYO Co., Ltd.) 2, 5, 30 and 60 minutes after the injection. Further, the radioactivity level of the rest of the whole body was measured in the same manner as above (hereinafter referred to as B in this Example). Using these measurement results, radioactive distribution per unit weight of brain (% ID/g) at the respective time points were calculated in accordance with the following formula (5).

The target of data set [2] is T1, amyloid (aggregated Aβ1-42) injected into amygdaloid nucleus (Homo sapiens, UniProt P05067).
T1 construct: Aβ1-42 (manufactured by Wako) was dissolved in phosphate buffer (pH 7.4); purchased Wako
In words: confirmation of imaging of amyloid in brain (autoradiogram, Aβ1-42 injected rats). It is filed as in vivo, rat. Conditions: brain slice 60 minutes after intravenous injection, Aβ1-42. As to the method:
(§1) (1) Aβ1-42 (manufactured by Wako) was dissolved in phosphate buffer (pH 7.4) and shaken at 37° C. for 72 hours, to obtain a 1 mg/mL suspension of aggregated Aβ (hereinafter referred to as amyloid suspension in the Examples).
(§2) (2) 2.5 μL (corresponding to […]) of the amyloid suspension was injected into an amygdaloid nucleus on one side of a male Wistar rat (7-week old). As a control, 2.5 μL of a phosphate buffered physiological saline solution (pH 7.4) was injected into an amygdaloid nucleus on the other side of the rat. The rats were examined 1 day after the injection of the amyloid suspension and the phosphate buffered physiological saline solution (pH 7.4).
(§3) (3) Compound 1 was dissolved in a 10 mg/mL ascorbic acid-containing physiological saline solution to obtain a sample solution (22 MBq/mL in radioactivity concentration in the sample solution). This solution was injected under thiopental anesthesia into the rat through the tail vein (dosage: 0.5 mL, dosed radioactivity: 11-13 MBq equivalent).
(§4) (4) Brain was removed 60 minutes after the injection to prepare a brain slice of 10 μm in thickness with a microtome (type: CM3050S, manufactured by LEICA). The brain slice was exposed to an imaging plate for 20 hours, and then image analysis was carried out by use of a Bio-imaging Analyzer (type: BAS-2500; manufactured by FUJIFILM Corporation).
(§5) Thus, it was confirmed that amyloid was deposited on the slice (FIG. 6b).
(§6) The same procedures as in Example 12 were performed except using a solution of Compound 2 in a 10 mg/mL ascorbic acid as a sample solution (the radioactive concentration of the sample solution was 25 MBq/mL).
(§7) (1) Aβ1-42 (manufactured by Wako) was dissolved in phosphate buffer (pH 7.4) and shaken at 37° C. for 72 hours, to obtain 1 mg/mL of a suspension of aggregated Aβ (hereinafter referred to as amyloid suspension in the Examples).
(§8) (3) A sample solution (30 MBq/mL in radioactivity concentration, Example 24) in which Compound 4 was dissolved in a 10 mg/mL ascorbic acid-containing physiological saline solution and a sample solution (30 MBq/mL in radioactivity concentration, Example 25) in which Compound 6 was dissolved in a 10 mg/mL ascorbic acid-containing physiological saline solution were prepared. This solution was injected under thiopental anesthesia into the rat through the tail vein (dosage: 0.5 mL, dosed radioactivity: 11-15 MBq equivalent).
(§9) Thus, it was confirmed that amyloid was deposited on the slice (FIG. 12 and FIG. 13).

The subject of data set [3] is amyloid (aggregated Aβ1-42) injected into amygdaloid nucleus. Described as above. The format is in vivo, rat. As to conditions: brain slice 60 minutes after intravenous injection. As to the method: as §1, §2, §3, §4, §5, §6, §7, §8, §9
Data set [4] can be described thus: partition coefficient based on the octanol extraction method. The format is physicochemical. As to conditions: octanol / 10 mmol/L phosphate buffer pH 7.4; Table 4 (Examples 8-9, Comparative Example 4). As to the method: Partition coefficients based on the octanol extraction method (hereinafter referred to as log Poctanol) were measured, which are generally known as an indicator of permeability of compounds through the blood-brain barrier (hereinafter referred to as BBB).
A diethyl ether solution of Compound 1 prepared in Example 3 (Example 8), a diethyl ether solution of Compound 2 prepared in Example 6 (Example 9), and a diethyl ether solution of [^123I]-IMPY prepared in Reference Example 1 (Comparative Example 4) were each diluted with 10 mg/mL ascorbic acid-containing physiological saline solution, and adjusted to a radioactive concentration of 20-30 MBq/mL. To 2 mL of octanol, 10 μL each of the prepared sample solutions was added, 2 mL of 10 mmol/L phosphate buffer (pH 7.4) was added, followed by stirring for 30 seconds. After the mixture was centrifuged with a low-speed centrifuge (2000 rpm×60 min.), the octanol layer and the water layer were sampled each in an amount of 1 mL, and subjected to measurement of radioactivity count with an autowell gamma system (Type: ARC-301B, manufactured by Aloka). Using the obtained radioactivity count, log Poctanol was calculated in accordance with the equation (2).
A diethyl ether solution (Example 20) of Compound 4 prepared in Example 16, a diethyl ether solution (Example 21) of Compound 6 prepared in Example 19, and a diethyl ether solution (Comparative Example 7) of [^123I]-IMPY were each diluted with a 10 mg/mL ascorbic acid-containing physiological saline solution to adjust to a radioactive concentration of 20-30 MBq/mL. To 2 mL of octanol, 10 μL each of the prepared sample solution was added, and 2 mL of 10 mmol/L phosphate buffer (pH 7.4) was further added, followed by stirring for 30 seconds. After the mixture was centrifuged with a low-speed centrifuge (2000 rpm×60 min.), the octanol layer and the water layer were sampled each in an amount of 1 mL, and subjected to measurement of radioactivity count with an autowell gamma system (Type: ARC-301B, manufactured by Aloka). Using the obtained radioactivity count, log Poctanol was calculated in accordance with the equation (4).

In data set [5] the test system is Salmonella typhimurium TA100. In words: reverse mutation test (Ames test), TA100. It is filed as cell-based. Here is the method:
(§10) In order to examine gene mutagenicity of Compound 3, 5 and 8, reverse mutation test using Salmonella typhimurium TA98 and TA100 (hereinafter referred to as Ames test) was conducted.
(§11) The test was conducted without addition of S9mix and with addition of S9mix. Dimethylsulfoxide (DMSO) was used as a negative control. A positive control was 2-(2-furyl)-3-(5-nitro-2-furyl)acrylamide (hereinafter referred to as AF-2) in case S9mix was not added, and 2-aminoanthracene (hereinafter referred to as 2-AA) in case S9mix was added.
(§12) As a sample solution to be added to a test plate, each compound was dissolved in DMSO to prepare a solution at a concentration of 50 mg/mL, and further, each solution was diluted with DMSO to prepare a solution with 7 dosage (geometric ratio 3). As a sample solution for preparing a sample of positive control, when TA98 was used as a test strain without addition of S9mix, a solution of AF-2 (compound concentration: 1 μg/mL) in DMSO was prepared; when TA100 was used as a test strain without addition of S9mix, a solution of AF-2 (compound concentration: 0.1 μg/mL) in DMSO was prepared; when TA98 was used as a test strain with addition of S9mix, a solution of 2-AA (compound concentration: 5 μg/mL) in DMSO was prepared; and when TA100 was used as a test strain with addition of S9mix, a solution of 2-AA (compound concentration: 10 μg/mL) in DMSO was prepared.
(§13) After each sample solution to be examined and a test strain (TA98 or TA100) were mixed together so as to make the addition amount of each sample to be 0.1 mL/plate, the mixture was multilayered using soft agar on a medium of a test plate, and then incubated at 37° C. for 48 hours. Separately, after each sample solution to be examined, S9mix and a test strain were mixed together so as to make the addition amount of each sample to be 0.1 mL/plate, the mixture was multilayered using soft agar on a medium of a test plate, and then incubated at 37° C. for 48 hours. On the other hand, only DMSO was used as a sample solution to perform the same procedure as above for the negative control.
For orientation: The Ames test uses bacterial strains that need an amino acid and regain growth without it when mutated back.

The subject of data set [6] is Salmonella typhimurium TA98. The experiment in a line: reverse mutation test (Ames test), TA98. The format is cell-based. Here is the method: as §10, §11, §12, §13
The conditions of data set [7]: normal mice, [125I]-labeled, cited from earlier work; for transfer into brain: 2 minutes after administration.

T1 sequence (P05067 672-713): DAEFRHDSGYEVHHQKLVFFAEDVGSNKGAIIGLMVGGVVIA

Turning to “2-(4′-ethoxyphenyl)-6-[^123I]iodoimidazo[1,2-a]pyridine [Compound 2]”, in data set [1] (male Wistar rats, intravenous injection, 2 min, Table 5), the “Radioactive distribution per unit weight in brain, After 2 min.” value turned out to be 0.89 % ID/g. Besides, the “Radioactive distribution per unit weight in brain, After 5 min.” value in data set [1] (male Wistar rats, intravenous injection, 5 min, Table 5) came to 0.66 % ID/g. The “Radioactive distribution per unit weight in brain, After 30 min.” value in data set [1] (male Wistar rats, intravenous injection, 30 min, Table 5) stood at 0.13 % ID/g. Also, the “Radioactive distribution per unit weight in brain, After 60 min.” value in data set [1] (male Wistar rats, intravenous injection, 60 min, Table 5) is recorded as 0.04 % ID/g. For the same compound, the “radioactive accumulation in brain two minutes after the injection (in words)” value in data set [1] (rats, intravenous, 2 min) is “significant radioactive accumulation”. Further, in data set [1] (rats, intravenous, 60 min), the “clearance from brain in 60 minutes (in words)” value was “rapidly clear away”. Further, the “accumulation of radioactivity in amygdaloid nucleus on the amyloid-injected side” value in data set [2] is given as “marked accumulation of radioactivity”. In data set [3], the “accumulation of radioactivity at sites other than the amyloid injected sites” value is “some radioactive accumulation” and the “accumulation of radioactivity in amygdaloid nucleus on the physiological saline-injected side” value is given as “no significant accumulation of radioactivity”. This compound also came in with a logPoctanol value in data set [4] of 2.1.

As to `OCCOc1ccc(-c2cn3cc(I)ccc3n2)cc1` [Compound 3, 2-[4′-(2″-hydroxyethoxy)phenyl]-6-iodoimidazo[1,2-a]pyridine], in data set [5], the “Mutagenicity, TA100, With addition of S9mix” value is listed as “Negative” and the “Mutagenicity, TA100, Without addition of S9mix” value is “Negative”. In data set [6], the “Mutagenicity, TA98, With addition of S9mix” value is “Negative” and the “Mutagenicity, TA98, Without addition of S9mix” value was “Negative”.

With `OCCOc1cccc(-c2cn3cc(I)ccc3n2)c1` [Compound 5, 2-[3′-(2″-hydroxyethoxy)phenyl]-6-iodoimidazo[1,2-a]pyridine], in data set [5], the “Mutagenicity, TA100, With addition of S9mix” value was “Negative” and the “Mutagenicity, TA100, Without addition of S9mix” value is listed as “Negative”. Moreover, in data set [6], the “Mutagenicity, TA98, With addition of S9mix” value is reported as “Negative” and the “Mutagenicity, TA98, Without addition of S9mix” value is “Negative”.

In the case of `CCOc1ccc(-c2cn3cc(I)ccc3n2)cc1` [Compound 8, 2-(4′-ethoxyphenyl)-6-iodoimidazo[1,2-a]pyridine], in data set [5], the “Mutagenicity, TA100, With addition of S9mix” value is reported as “Negative” and the “Mutagenicity, TA100, Without addition of S9mix” value is “Negative”. Moreover, in data set [6], the “Mutagenicity, TA98, With addition of S9mix” value was “Negative” and the “Mutagenicity, TA98, Without addition of S9mix” value is given as “Negative”.

As to `CN(C)c1ccc(-c2nc3ccc(I)cc3o2)cc1` [IBOX, 6-iodo-2-[4′-(N,N-dimethylamino)phenyl]benzoxazole], in data set [7], the transfer into brain entry was “transferred into brain” and the “clearance from normal tissues” value was “insufficient in clearance from normal tissues”.

As for `CN(C)c1ccc(-c2nc3ccc(I)cc3s2)cc1` [TZDM, 6-iodo-2-[4′-(N,N-dimethylamino)phenyl]benzothiazole], in data set [7], the transfer into brain result was “transferred into brain” and the “clearance from normal tissues” value is listed as “insufficient in clearance from normal tissues”.

On to `CN(C)c1ccc(/C=C/c2ccc(I)cc2)cc1` [m-I-SB, (E)-4-dimethylamino-4′-iodostilbene], for which, in data set [7], the transfer into brain result is listed as “transferred into brain” and the “clearance from normal tissues” value is listed as “insufficient in clearance from normal tissues”.
